{"source": "patent US6756480B2", "about": "“Modulators of receptors for parathyroid hormone and parathyroid hormone-related protein” (Amgen Inc., priority 2000, dated 2004)", "key": {"[1]": {"target": "T1, PTH-1 receptor (Homo sapiens, UniProt Q03431)", "T1 sequence (Q03431 27-593)": "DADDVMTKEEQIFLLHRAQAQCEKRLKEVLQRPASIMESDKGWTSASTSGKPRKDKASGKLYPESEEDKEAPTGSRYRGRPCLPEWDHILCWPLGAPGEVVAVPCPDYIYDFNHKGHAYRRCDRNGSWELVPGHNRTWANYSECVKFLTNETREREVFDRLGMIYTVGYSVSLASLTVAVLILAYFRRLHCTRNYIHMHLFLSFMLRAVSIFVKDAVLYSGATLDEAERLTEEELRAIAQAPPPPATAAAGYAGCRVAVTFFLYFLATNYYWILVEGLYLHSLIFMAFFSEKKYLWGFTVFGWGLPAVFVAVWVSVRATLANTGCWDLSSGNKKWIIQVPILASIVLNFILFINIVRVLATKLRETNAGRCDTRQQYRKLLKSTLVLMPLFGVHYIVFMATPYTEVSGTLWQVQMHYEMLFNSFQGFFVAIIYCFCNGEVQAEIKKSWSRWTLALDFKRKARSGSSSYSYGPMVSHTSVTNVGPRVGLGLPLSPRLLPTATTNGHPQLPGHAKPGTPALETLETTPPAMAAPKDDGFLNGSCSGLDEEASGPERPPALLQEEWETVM", "details": "cited from earlier work"}, "[2]": {"target": "T2, rat PTH-1 receptor (Rattus norvegicus, UniProt P25961)", "T2 sequence (P25961 27-591)": "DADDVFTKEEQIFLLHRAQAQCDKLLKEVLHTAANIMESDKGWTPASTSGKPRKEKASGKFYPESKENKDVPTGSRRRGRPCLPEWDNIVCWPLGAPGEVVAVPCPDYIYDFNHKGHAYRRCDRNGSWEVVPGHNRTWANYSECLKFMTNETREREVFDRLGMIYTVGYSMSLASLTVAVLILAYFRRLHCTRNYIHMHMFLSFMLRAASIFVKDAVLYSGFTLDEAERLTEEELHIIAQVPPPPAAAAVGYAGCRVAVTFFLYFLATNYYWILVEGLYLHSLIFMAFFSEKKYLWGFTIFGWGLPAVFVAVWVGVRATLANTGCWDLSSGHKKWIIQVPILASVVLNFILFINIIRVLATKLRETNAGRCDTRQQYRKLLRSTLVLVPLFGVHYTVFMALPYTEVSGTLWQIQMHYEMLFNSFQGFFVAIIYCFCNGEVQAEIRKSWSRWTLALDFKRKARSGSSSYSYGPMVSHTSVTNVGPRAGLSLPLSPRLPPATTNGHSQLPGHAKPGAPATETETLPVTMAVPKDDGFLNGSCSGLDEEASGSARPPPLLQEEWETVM", "details": "cited from earlier work"}, "[3]": {"tested_on": "healthy humans", "details": "infusion, unlike PTH-(1-34); cited from earlier work"}, "[4]": {"tested_on": "OVX rats", "details": "cited from earlier work"}, "[5]": {"tested_on": "mice", "assay": "Mouse bioassay: SC injection days 0, 5, 10; clinical chemistry (calcium, AP, TRAP) and tibial pQCT", "type": "in vivo", "details": "for serum TRAP (osteoclast marker) / calcemic potency among the 3 Fc peptides: mice; for serum TRAP (osteoclast marker): after single SC injection; for calcemic potency among the 3 Fc peptides: serum calcium", "protocol": "Peripheral blood was obtained daily for 3 days following single subcutaneous injections of the indicated compounds.\nPeripheral quantitative computed tomography (pQCT) was performed on the proximal tibial metaphysis of mice on day 15, after injections of PTH constructs on day 0, 5 and 10.\nWe then tested the effects of PTH-(1-34), PTH-(1-34)-Fc, PTH-(1-31)-Fc and PTH-(1-30)-Fc in mice. Four week old male mice were injected on days 0, 5, and 10 with vehicle or with PTH fragments, by SC injection. Peripheral blood was obtained for clinical chemistry at 24, 48, and 72 h. Mice were killed on day 15, vertebrae, tibiae and femurs were harvested for histology and one tibia was collected for bone density measurements (peripheral quantitative computed tomography, pQCT). Clinical chemistry endpoints included total serum calcium, serum alkaline phosphatase (AP, a marker of osteoblast activity), and serum tartrate-resistant acid phosphatase (TRAP, a marker of osteoclast activity). For each animal, the ratio of AP:TRAP was calculated as an index of relative osteoblast activity compared to osteoclast activity. A higher AP:TRAP ratio would indicate a potentially more anabolic agent."}, "[6]": {"details": "in vivo, circulating; cited from earlier work"}, "[7]": {"tested_on": "mice", "assay": "Acute hypercalcemia induced by PTHrP-(1-34) challenge, antagonist given SC, blood ionized calcium", "type": "in vivo", "details": "0.5 mg/kg SC, vehicle-treated mice", "protocol": "Normal male mice were injected SC with vehicle (PBS, circles) or with human PTHrP-(1-34) at 0.5 mg/kg (squares). PTHrP-challenged mice were then immediately injected SC with [Asn10,Leu11]PTHrP-(7-34)-Fc at 10 mg/kg (triangles) or 30 mg/kg (diamonds). Data represent group means, with an n of 6 mice/group.\nWe have cloned, expressed and purified [Asn10,Leu11]PTHrP-(7-34)-Fc. We tested the ability of this compound to antagonize both acute and chronic hypercalcemia responses in mice. PTHrP-(1-34) was used as a calcemic agent to evaluate the acute effects of [Asn10,Leu11]PTHrP-(7-34)-Fc. Because PTHrP is the principal mediator of HHM, this study also represents a model for hypercalcemia-inducing tumors. Briefly, blood ionized calcium (BIC) was measured at baseline, and mice were then challenged with vehicle (PBS) or with PTHrP-(1-34) (0.5 mg/kg) by SC injection. Mice were then treated once SC with varying doses of [Asn10,Leu11]PTHrP-(7-34)-Fc, or with vehicle (PBS). In vehicle-treated mice challenged with PTHrP-(1-34), a transient hypercalcemic response was observed. The peak calcemic response occurred at 3 h post challenge, and persisted until at least 6 h post challenge."}, "[8]": {"tested_on": "aged ovariectomized (OVX) rats", "assay": "Monotherapy in aged ovariectomized (OVX) rats: twice-weekly treatment, BMD by DEXA and serum calcium", "type": "in vivo", "protocol": "Eleven months after OVX, rats were treated twice per week with phosphate-buffered saline (PBS, vehicle) or with APD (0.5 mg/kg) or with PTH-(1-34)-Fc (50 nmol/kg). DEXA was performed weekly. Blood was drawn 24 hours after the second weekly injection, when the calcemic effects of PTH-Fc are typically maximal. The effects of PTH-Fc administration on lumbar BMD (FIG. 11A), tibia/femur BMD (FIG. 11B), femoral metaphysis BMD (FIG. 11C), and serum calcium (FIG. 11D) were determined.\nSprague Dawley rats were OVX'd at 3 months of age and allowed to lose bone for 11 months. Other rats were sham-operated and treated twice per week with vehicle (PBS). OVX rats were treated twice per week with SC injections of either vehicle or the bisphosphonate APD (pamidronate, 0.5 mg/kg), or with PTH-(1-34)-Fc (50 nmol/kg) or with APD+PTH-(1-34)-Fc. BMD was determined weekly via dual energy X-ray absorptiometry (DEXA). Rats were sacrificed after 4 weeks of treatment. At the start of treatment, OVX rats had significant reductions in BMD at all skeletal sites analyzed, compared to vehicle-treated […] (FIG. 11, p<0.05, 2-way ANOVA)."}, "[9]": {"details": "100 nmoles/kg on day 0, 5, 10, pQCT day 15"}}, "note": "Read-outs that look alike come from different tables or passages of the source. No end group written: not given here."}
{"compound": "human PTH(1-30) (SVSEIQLMHNLGKHLNSMERVEWLRKKLQD; listed as Homo sapiens) [hPTH-(1-30)]", "values": [{"measurement": "reduction of affinity for PTH-1 receptor compared to hPTH-(1-34)", "setting": "[1]", "value": "10-100 fold"}, {"measurement": "PLC activation", "setting": "[2]", "value": "weak and incomplete agonist"}]}
{"compound": "human PTH(1-31) [hPTH-(1-31)]", "values": [{"measurement": "serum calcium, plasma 1,25(OH)2D3, urinary N-TX levels", "setting": "[3]", "value": "failed to elevate"}, {"measurement": "reduction of affinity for PTH-1 receptor compared to hPTH-(1-34)", "setting": "[1]", "value": "1-6 fold"}]}
{"compound": "human PTH(1-28) (SVSEIQLMHNLGKHLNSMERVEWLRKKL; listed as Homo sapiens) [PTH-(1-28)]", "values": [{"measurement": "anabolic effect", "setting": "[4]; 200 μg/kg/day", "value": "ineffective"}, {"measurement": "anabolic effect", "setting": "[4]; 1,000 μg/kg/day", "value": "anabolic"}]}
{"compound": "PTH-(1-30)-Fc: PTH (1-30), SVSEIQLMHNLGKHLNSMERVEWLRKKLQD, linked at its C-terminus to an Fc domain (SVSEIQLMHNLGKHLNSMERVEWLRKKLQD-{Fc domain})", "values": [{"measurement": "serum calcium", "setting": "[5]; 100 nmoles/kg", "value": "failed to significantly increase serum calcium"}, {"measurement": "bone mineral density (proximal tibial metaphysis)", "setting": "[5]; [9]", "value": "greatest effect"}, {"measurement": "serum AP (osteoblast marker)", "setting": "[5]; 1,000 nmoles/kg", "value": "greatest elevation"}, {"measurement": "time of peak serum AP after injection", "setting": "[5]; 1,000 nmoles/kg", "value": 72, "unit": "h"}, {"measurement": "bone mineral density (proximal tibial metaphysis)", "setting": "[5]; 1,000 nmoles/kg on day 0, 5, 10, pQCT day 15", "value": "least effect"}, {"measurement": "BMD versus controls", "setting": "[5]; all doses (100-1,000 nmoles/kg), pQCT day 15", "value": "greater than in controls"}, {"measurement": "calculated AP:TRAP ratio", "setting": "[5]; high dose 1,000 nmoles/kg", "value": "greatest increase"}, {"measurement": "serum TRAP (osteoclast marker)", "setting": "[5]", "value": "not significantly changed"}, {"measurement": "calcemic potency among the 3 Fc peptides", "setting": "[5]", "value": "least calcemic"}, {"measurement": "increase in bone density compared with the other PTH constructs", "setting": "[5]; pQCT day 15", "value": "greatest increase in bone density"}]}
{"compound": "Parathyroid hormone [PTH]", "values": [{"measurement": "half-life", "setting": "[6]", "value": "less than 1 h"}]}
{"compound": "human PTHrP(1-34) [PTHrP-(1-34)]", "values": [{"measurement": "persistence of calcemic response post challenge", "setting": "[7]", "value": "at least 6 h"}, {"measurement": "time of peak calcemic response post challenge", "setting": "[7]", "value": 3, "unit": "h"}]}
{"compound": "PTH-(1-31)-Fc: PTH (1-31), SVSEIQLMHNLGKHLNSMERVEWLRKKLQDV, linked at its C-terminus to an Fc domain", "values": [{"measurement": "bone mineral density (proximal tibial metaphysis)", "setting": "[5]; [9]", "value": "no effect"}, {"measurement": "serum AP (osteoblast marker)", "setting": "[5]; 300 nmoles/kg (given for PTH-(1-34)-Fc), 72 h", "value": "significantly elevated"}, {"measurement": "calculated AP:TRAP ratio", "setting": "[5]; high dose 1,000 nmoles/kg", "value": "decreased"}, {"measurement": "toxicity", "setting": "[5]; higher doses 300-1,000 nmoles/kg", "value": "significant hypercalcemia-related toxicity"}, {"measurement": "calculated AP:TRAP ratio", "setting": "[5]; low dose 100 nmoles/kg", "value": "increased"}, {"measurement": "serum TRAP (osteoclast marker)", "setting": "[5]", "value": "dramatically increased"}, {"measurement": "calcemic potency among the 3 Fc peptides", "setting": "[5]", "value": "more potent calcemic agent"}]}
{"compound": "NCCC(O)(P(=O)(O)O)P(=O)(O)O", "note": "[APD, pamidronate, reference compound]", "values": [{"measurement": "BMD at any skeletal site compared to vehicle-treated OVX rats", "setting": "[8]; 0.5 mg/kg twice per week", "value": "did not significantly increase BMD"}, {"measurement": "effect of co-administration on calcemic effect of PTH-(1-34)-Fc", "setting": "[8]; APD 0.5 mg/kg co-administered", "value": "completely blocked the calcemic effect"}]}
